# Data published in ChEMBL document CHEMBL6153039, “Synthesis and structural modification of the natural product Ivesinol to discover novel autophagy activators” (Eur J Med Chem, 2025).
# Calls of active or inactive are those of the source. No cut-off for these calls is given here.
# Tests used:
# [1] = tested on: MCF7; test: Induction of autophagy in human MCF7 cells assessed as upregulation of LC3-II to LC3-I ratio at 20 uM incubated for 4 hrs by Western blotting analysis; format: functional, cell-based
# [2] = tested on: MCF7; test: Induction of autophagy in human MCF7 cells assessed as p62/GAPDH ratio (reference value: 1.20); format: functional
# [3] = tested on: MCF7; test: Induction of autophagy in human MCF7 cells assessed as p62/GAPDH ratio (reference value: 0.96); format: functional
# [4] = tested on: HEK293; test: Inhibition of autophagy in HEK293 cells assessed as increase in LC3-II protein level incubated for 4 hrs by Western blotting analysis; format: functional, cell-based; conditions: Homo sapiens, dose 0.1-2 µM
# [5] = tested on: HEK293; test: Inhibition of autophagy in HEK293 cells assessed as increase in p62 protein level incubated for 4 hrs by Western blotting analysis; format: functional, cell-based; conditions: Homo sapiens, dose 0.1-2 µM
# [6] = tested on: HEK293; test: Inhibition of autophagy in HEK293 cells assessed as increase in LC3-I protein level incubated for 4 hrs by Western blotting analysis; format: functional, cell-based; conditions: Homo sapiens, dose 0.1-2 µM
# [7] = tested on: MCF7; test: Inhibition of autophagy in human MCF7 cells assessed as increase in LC3-II protein level incubated for 4 hrs by Western blotting analysis; format: functional, cell-based; conditions: dose 0.1-2 µM
# [8] = tested on: MCF7; test: Inhibition of autophagy in human MCF7 cells assessed as increase in p62 protein level incubated for 4 hrs by Western blotting analysis; format: functional, cell-based; conditions: dose 0.1-2 µM
# [9] = tested on: MCF7; test: Inhibition of autophagy in human MCF7 cells assessed as increase in LC3-I protein level incubated for 4 hrs by Western blotting analysis; format: functional, cell-based; conditions: dose 0.1-2 µM
# [10] = tested on: L02; test: Cytotoxicity against human LO2 cells assessed as reduction in cell viability at 0.3125 to 40 uM incubated for 24 hrs by MTT assay; format: toxicity, cell-based; conditions: l02, 24 h, dose 0.3125-40 µM
# [11] = tested on: MCF7; test: Induction of autophagy in human MCF7 cells expressing pEGFP-LC3 assessed as increase in LC3 puncta at 20 uM incubated for 4 hrs by fluorescence microscopic analysis; format: functional, cell-based
# [12] = tested on: MCF7; test: Induction of autophagy in wild type human MCF7 cells assessed as increase in LC3-II level at 20 uM incubated for 4 hrs by Western blotting analysis; format: functional, cell-based
# [13] = tested on: MCF7; test: Induction of autophagy in wild type human MCF7 cells assessed as decrease in LC3-I level at 20 uM incubated for 4 hrs by Western blotting analysis; format: functional, cell-based
# [14] = tested on: MCF7; test: Induction of autophagy in human MCF7 cells assessed as increase in LC3-II/LC3-1 rate at 20 uM incubated for 4 hrs by Western blotting analysis; format: functional, cell-based
# [15] = tested on: HEK293; test: Induction of autophagy in HEK293 cells assessed as decrease in p62 protein level incubated for 4 hrs by Western blotting analysis; format: functional, cell-based; conditions: Homo sapiens, dose 0.5-10 µM
# [16] = tested on: MCF7; test: Induction of autophagy in human […] cells assessed as decrease in p62 protein level incubated for 4 hrs by Western blotting analysis; format: functional, cell-based; conditions: dose 0.5-10 µM
# [17] = tested on: HEK293; test: Induction of autophagy in HEK293 cells assessed as increase in LC3-II protein level incubated for 4 hrs by Western blotting analysis; format: functional, cell-based; conditions: Homo sapiens, dose 0.5-10 µM
# [18] = tested on: MCF7; test: Induction of autophagy in human […] cells increase in LC3-II protein level incubated for 4 hrs by Western blotting analysis; format: functional, cell-based; conditions: dose 0.5-10 µM
# [19] = tested on: MCF7; test: Induction of autophagy in wild type human MCF7 cells assessed as increase in LC3-II level at 10 uM incubated for 1 to 4 hrs by Western blotting analysis; format: functional, cell-based; conditions: time 1-4 hrs
# [20] = tested on: MCF7; test: Induction of autophagy in wild type human MCF7 cells assessed as decrease in p62 level at 10 uM incubated for 1 to 4 hrs by Western blotting analysis; format: functional, cell-based; conditions: time 1-4 hrs
# [21] = tested on: MCF7; test: Induction of autophagy in wild type human MCF7 cells assessed as increase in LC3-II level at 10 uM incubated for 6 to 8 hrs by Western blotting analysis; format: functional, cell-based; conditions: time 6-8 hrs
# [22] = tested on: BEAS-2B; test: Cytotoxicity against human BEAS-2B cells assessed as reduction in cell viability at 0.3125 to 40 uM incubated for 24 hrs by MTT assay; format: toxicity, cell-based; conditions: dose 0.3125-40 µM
# [23] = tested on: MCF7; test: Cytotoxicity against human MCF7 cells assessed as reduction in cell viability at 0.3125 to 40 uM incubated for 24 hrs by MTT assay; format: functional, cell-based; conditions: dose 0.3125-40 µM
# [24] = tested on: MCF7; test: Induction of autophagy in human MCF7 cells assessed as decrease in p62 level at 20 uM incubated for 4 hrs by Western blotting analysis; format: functional, cell-based
# [25] = tested on: MCF7; test: Induction of autophagic flux in wild type human MCF7 cells assessed as increase in LC3-II protein level at 10 uM incubated for 4 hrs in the presence of bafilomycin A1 by Western blotting analysis; format: functional, cell-based
# [26] = tested on: MCF7; test: Induction of autophagic flux in wild type human MCF7 cells assessed as increase in LC3-I protein level at 10 uM incubated for 4 hrs in the presence of bafilomycin A1 by Western blotting analysis; format: functional, cell-based
# [27] = tested on: MCF7; test: Induction of autophagic flux in wild type human MCF7 cells assessed as increase in p62 protein level at 10 uM incubated for 4 hrs in the presence of bafilomycin A1 by Western blotting analysis; format: functional, cell-based
# [28] = tested on: MCF7; test: Induction of autophagy in pEGFP-LC3-labeled human MCF7 cells assessed as formation of autophagosome by measuring the appearance of clustered granules near the nucleus at 10 uM by laser confocal microscopic imaging analysis; format: functional, cell-based; conditions: time 1-8 hrs
# [29] = Cytotoxicity against human […] cells assessed as reduction in cell viability at 0.3125 to 40 uM incubated for 24 hrs by MTT assay; format: toxicity, cell-based; conditions: dose 0.3125-40 µM
smiles,measurement,setting,value
COc1c(C)c(O)c(C(=O)C(C)C)c(O)c1Cc1c(O)c(C(=O)C(C)(C)C)c(O)c(C)c1OC,Activity,[1],Active
same,Ratio,[2],0.98
CCC(=O)c1c(O)c(C)c(OC)c(Cc2c(O)c(C(=O)C(C)C)c(O)c(C)c2OC)c1O,Activity,[1],Active
same,Ratio,[2],0.86
CCCCC(=O)c1c(O)c(C)c(OC)c(Cc2c(O)c(C(=O)CCCC)c(O)c(C)c2OC)c1O,Activity,[1],Active
same,Ratio,[3],0.86
CCCCC(=O)c1c(O)c(C)c(OC)c(Cc2c(O)c(C)c(O)c(C(=O)CCCC)c2OC)c1O,Ratio,[2],1.05
CCC(=O)c1c(O)c(Cc2c(O)c(C(=O)CC)c(O)c(C(=O)CC)c2O)c(O)c(C(=O)CC)c1O,inhibition,[4],Dose-dependent-effect
same,inhibition,[5],Dose-dependent-effect
same,inhibition,[6],Dose-dependent-effect
same,inhibition,[7],Dose-dependent-effect
same,inhibition,[8],Dose-dependent-effect
same,inhibition,[9],Dose-dependent-effect
COc1c(Cc2c(O)c(C)c(O)c(C(=O)C(C)C)c2OC)c(O)c(C)c(O)c1C(=O)C(C)C,Ratio,[3],0.92
COc1c(C)c(O)c(C(=O)C(C)C)c(O)c1Cc1c(O)c(C(=O)C(C)C)c(O)c(C)c1OC,Activity,[10],Toxic
same,Activity,[11],Active; Higher Activity Observed
same,Activity,[12],Active
same,Activity,[13],Active
same,Activity,[14],Active
same,Activity,[1],Active
same,Ratio,[3],0.73
same,Activity,[15],Dose-dependent-effect
same,Activity,[16],Dose-dependent-effect
same,Activity,[17],Dose-dependent-effect
same,Activity,[18],Dose-dependent-effect
same,Activity,[19],Active
same,Activity,[20],Active
same,Activity,[21],inactive
same,Activity,[22],Toxic
same,Activity,[23],Active
same,Activity,[24],Active
same,Activity,[25],Active
same,Activity,[26],Active
same,Activity,[27],Active
same,Activity,[28],Time-dependent-effect
same,Activity,[29],Toxic
COc1c(C)c(O)c(CC(C)C)c(O)c1Cc1c(O)c(CC(C)C)c(O)c(C)c1OC,Ratio,[3],0.95
CCCCCc1c(O)c(C)c(OC)c(Cc2c(O)c(CCCCC)c(O)c(C)c2OC)c1O,Ratio,[3],0.97
CCCCC(=O)c1c(O)c(C)c(OC)c(Cc2c(O)c(C(C)=O)c(O)c(C)c2OC)c1O,Activity,[1],Active
same,Ratio,[2],0.85
COc1c(C)c(O)c(C(C)=O)c(O)c1Cc1c(O)c(C(=O)C(C)C)c(O)c(C)c1OC,Activity,[1],Active
same,Ratio,[2],0.84
CCCCC(=O)c1c(O)c(C)c(O)c(Cc2c(O)c(C)c(O)c(C(=O)CCCC)c2OC)c1OC,Activity,[1],Active
same,Ratio,[3],0.84
COc1c(C)c(O)c(C(=O)C(C)C)c(O)c1Cc1c(O)c(C)c(O)c(C(=O)C(C)C)c1OC,Activity,[1],Active
same,Ratio,[2],0.7
CCN(CC)CCCC(C)Nc1ccnc2cc(Cl)ccc12 (stereo unspecified),Activity,[12],Active
same,Activity,[13],inactive
COc1c(C)c(O)c(C(=O)C(C)(C)C)c(O)c1Cc1c(O)c(C(=O)C(C)(C)C)c(O)c(C)c1OC,Ratio,[3],1.18
COc1c(C)c(O)c(C(C)=O)c(O)c1Cc1c(O)c(C)c(O)c(C(=O)C(C)C)c1OC,Activity,[1],Active
same,Ratio,[2],0.71
